Patent publication US20250064773A1, “TARGETING ERO1 ALPHA WITH AURONE DERIVATIVES” (West Virginia University Board of Governors on behalf of …, priority 2021, published 2025)

System: MM1.s
Assay: MTT viability assay, MM1.s
Type: cell-based
Settings: Homo sapiens, Multiple Myeloma, read-out: IC50 Avg ± s.d. (n = 3), MM1.s
From the text: Cell Lines: PC-9 cell line used was obtained from Sigma Aldrich and grown in RPMI 1640 medium with 10% fetal bovine serum and 1% penicillin/streptomycin. HCC4006, U266, MM1.s, and Beas-2B cell lines were obtained from ATCC and cultured in either RPMI 1640 or DMEM with 10% fetal bovine serum and 1% penicillin/streptomycin. All cell lines were also checked for mycoplasma every six months and subjected to short tandem repeat (STR) analysis for cell line validation. CRISPR Cas9: CRISPR Guide RNA 2 targeting ERO1α and CRISPR Guide RNA 4 were purchased from Genscript in the pLentiCRISPR V2 plasmid containing puromycin/ampicillin selection marker. Lentivirus was made from HEK 293T cells by co-transfection with GuideRNA of interest, pVSVG, and pPAX2 plasmids. […] Plate was then read on the BioTek Cytation 5 at 530/590 nm. […] Plate was then read at 570 nm. Treated wells were all compared to DMSO control wells to calculate percent growth inhibition and the IC50 was calculated using GraphPad (log(inhibitor) vs growth inhibition). […] Images were then quantified using ImageJ. […] Cells were aliquoted at 1 million cells per PCR tube in PBS and heated in Bio-Rad T100 thermal cycler at indicated temperatures (RT, 46° C., 48° C., 50° C., 52° C., 54° C., 56°, 58° C., and 60° C.) for 3 minutes and aggregation temperature was determined by western blot analysis. […]

For `CN(C)c1ccc(/C=C2\Oc3cc(O)ccc3C2=O)cc1` [Compound T151742], the IC50 was 7.45 ± 1.12 µM.
